Where a name gives a salt, the structure may show the parent alone.
biological target: T1, Human DPP4 (Homo sapiens, UniProt P27487); assay: DPP4 activity assay (DPP4 Activity Assay Kit, fluorescent substrate); type: biochemical; settings: Human DPP4; read-out: DPP4 inhibition IC50 [nM])
T1 construct: purchased Sigma-Aldrich MAK088
Method: DPP4 activity assay. Human DPP4 activity assay data were obtained using a DPP4 Activity Assay Kit (Sigma-Aldrich, MAK088) according to the manufacturer's instructions. Briefly, 10 μL of DPP4 Assay Buffer were transferred per well in low volume 384-well plates before transferring 10 μL of test compound dissolved in DPP4 assay buffer. To each well was added 5 μL of Master Reaction Mix containing a fluorescent substrate that becomes fluorescent upon cleavage by the enzyme. Fluorescence intensity measurements were recorded at 1-minute time intervals over the course of 20 minutes using an Envision Multimode Plate Reader (PerkinElmer).

T1 sequence (P27487 whole entry): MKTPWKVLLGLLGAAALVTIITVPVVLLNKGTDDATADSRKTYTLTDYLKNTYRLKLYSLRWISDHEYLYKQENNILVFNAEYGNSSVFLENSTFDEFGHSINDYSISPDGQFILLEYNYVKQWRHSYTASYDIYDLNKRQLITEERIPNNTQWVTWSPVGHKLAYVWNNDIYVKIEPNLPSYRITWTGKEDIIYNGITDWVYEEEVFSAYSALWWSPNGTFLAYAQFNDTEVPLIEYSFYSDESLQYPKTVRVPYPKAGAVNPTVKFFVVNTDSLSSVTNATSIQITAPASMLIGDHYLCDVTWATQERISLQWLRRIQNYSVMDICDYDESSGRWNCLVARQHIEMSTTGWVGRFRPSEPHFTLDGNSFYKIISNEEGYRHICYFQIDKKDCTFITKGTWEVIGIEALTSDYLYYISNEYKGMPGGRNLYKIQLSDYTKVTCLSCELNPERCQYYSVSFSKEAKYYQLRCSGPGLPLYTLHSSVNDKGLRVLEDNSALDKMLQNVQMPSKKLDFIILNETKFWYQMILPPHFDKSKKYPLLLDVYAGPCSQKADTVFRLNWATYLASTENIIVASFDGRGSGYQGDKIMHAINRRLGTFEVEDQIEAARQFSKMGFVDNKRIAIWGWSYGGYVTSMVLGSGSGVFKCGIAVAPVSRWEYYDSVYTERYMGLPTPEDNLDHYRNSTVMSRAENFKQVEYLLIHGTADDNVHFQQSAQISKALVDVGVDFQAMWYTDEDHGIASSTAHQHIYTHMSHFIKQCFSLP

Row | IC50 [nM] | SMILES
1 | 11 | CCCCCCN(CCc1ccc(OCCNC(=O)OCCSC23CC4C[C@@H](CC(NCC(=O)N5CCC[C@H]5C#N)(C4)C2)C3)cc1)C[C@H](O)[C@@H](O)[C@H](O)[C@H](O)CO (stereo in doubt) [Compound 4, 2-(((1R,3S,5S)-3-((2-((S)-2-cyanopyrrolidin-1-yl)-2-oxoethyl)amino)adamantan-1-yl)thio)ethyl (2-(4-(2-(hexyl((2S,3R,4R,5R)-2,3,4,5,6-pentahydroxyhexyl)amino)ethyl)phenoxy)ethyl)carbamate]
2 | > 1000 | CC#CCn1c(N2CCC[C@@H](N)C2)nc2c1c(=O)n(Cc1nc(F)ccc1C(=O)OCCCCCC)c(=O)n2C [Compound 30, hexyl (R)-2-((8-(3-aminopiperidin-1-yl)-7-(but-2-yn-1-yl)-3-methyl-2,6-dioxo-2,3,6,7-tetrahydro-1H-purin-1-yl)methyl)-6-fluoronicotinate]
3 | 17.8 | CN1CC2(CC(NC(=O)c3nc(C(F)(F)F)n4c3CN(C(=O)C[C@H](N)Cc3cc(F)c(F)cc3F)CC4)C2)C1 [Compound 55, (R)-4-(1-((2-methyl-2-azaspiro[3.3]heptan-6-yl)carbamoyl)-3-(trifluoromethyl)-5,6-dihydroimidazo[1,5-a]pyrazin-7(8H)-yl)-4-oxo-1-(2,4,5-trifluorophenyl)butan-2-aminium (2R,3R)-3-carboxy-2,3-dihydroxypropanoate]
4 | 12 | N#C[C@@H]1C[C@@H]2C[C@@H]2N1C(=O)[C@@H](N)C12CC3C[C@H](CC(OCCOC(=O)CNc4ccc(CN(CCO)CCO)cc4)(C3)C1)C2 [Compound 18]
5 | 0.54 | N[C@@H](CC(=O)N1CCn2c(C(F)(F)F)nc(C(=O)OCCOCCN3CCOCC3)c2C1)Cc1cc(F)c(F)cc1F [Compound 52, (R)-4-(1-((2-(2-morpholinoethoxy)ethoxy)carbonyl)-3-(trifluoromethyl)-5,6-dihydroimidazo[1,5-a]pyrazin-7(8H)-yl)-4-oxo-1-(2,4,5-trifluorophenyl)butan-2-aminium (2R,3R)-3-carboxy-2,3-dihydroxypropanoate]
6 | 9 | CCCCCCCS(=O)C12CC3C[C@@H](CC(NCC(=O)N4CCC[C@H]4C#N)(C3)C1)C2 (stereo in doubt) [Compound 3, (2S)-1-(((1S,3R,5S)-3-(heptylsulfinyl)adamantan-1-yl)glycyl)pyrrolidine-2-carbonitrile]
7 | > 1000 | CC#CCn1c(N2CCC[C@@H](N)C2)nc2c1c(=O)n(Cc1nc(NC)ccc1C(=O)OCCCCCC)c(=O)n2C [Compound 32, hexyl (R)-2-((8-(3-aminopiperidin-1-yl)-7-(but-2-yn-1-yl)-3-methyl-2,6-dioxo-2,3,6,7-tetrahydro-1H-purin-1-yl)methyl)-6-(methylamino)nicotinate]
8 | 0.55 | N[C@@H](CC(=O)N1CCn2c(C(F)(F)F)nc(C(=O)OCCOCCOCCn3cc(CN(C[C@H](O)[C@@H](O)[C@H](O)[C@H](O)CO)C[C@H](O)[C@@H](O)[C@H](O)[C@H](O)CO)nn3)c2C1)Cc1cc(F)c(F)cc1F [Compound 48, 2-(2-(2-(4-((bis((2S,3R,4R,5R)-2,3,4,5,6-pentahydroxyhexyl)amino)methyl)-1H-1,2,3-triazol-1-yl)ethoxy)ethoxy)ethyl 7-((R)-3-amino-4-(2,4,5-trifluorophenyl)butanoyl)-3-(trifluoromethyl)-5,6,7,8-tetrahydroimidazo[1,5-a]pyrazine-1-carboxylate]
9 | 32 | CCCCCCCC(=O)OCOC12CC3CC(CC(NCC(=O)N4CCC[C@H]4C#N)(C3)C1)C2 [Compound 7, ((3-((2-((S)-2-cyanopyrrolidin-1-yl)-2-oxoethyl)amino)adamantan-1-yl)oxy)methyl Octanoate]
10 | 11.4 | CC#CCn1c(N2CCC[C@@H](N)C2)nc2c1c(=O)n(Cc1nc(NC)ccc1C(=O)O)c(=O)n2C [Compound 31]
11 | 4.2 | CCN(Cc1ccc(CNC(=O)OCCO[C@]23CC4C[C@H](C2)C[C@@]([C@H](N)C(=O)N2[C@H](C#N)C[C@@H]5C[C@@H]52)(C4)C3)cc1)C[C@H](O)[C@@H](O)[C@H](O)[C@H](O)CO [Compound 23, 2-(((1R,3S,5S)-3-((S)-1-amino-2-((1S,3S,5S)-3-cyano-2-azabicyclo[3.1.0]hexan-2-yl)-2-oxoethyl)adamantan-1-yl)oxy)ethyl (4-((ethyl((2S,3R,4R,5R)-2,3,4,5,6-pentahydroxyhexyl)amino)methyl)benzyl)carbamate Formate]
12 | 6.6 | N#C[C@@H]1C[C@@H]2C[C@@H]2N1C(=O)[C@@H](N)[C@]12CC3CC(C[C@](OCCOC(=O)NCc4ccc(CN(C[C@@H](O)[C@H](O)[C@@H](O)[C@@H](O)CO)C[C@@H](O)[C@H](O)[C@@H](O)[C@@H](O)CO)cc4)(C3)C1)C2 (stereo in doubt) [Compound 22, 2-(((1R,3S,5S)-3-((S)-1-amino-2-((1S,3S,5S)-3-cyano-2-azabicyclo[3.1.0]hexan-2-yl)-2-oxoethyl)adamantan-1-yl)oxy)ethyl (4-((bis((2S,3R,4R,5R)-2,3,4,5,6-pentahydroxyhexyl)amino)methyl)benzyl)carbamate trifluoracetate salt]
13 | 1 | N[C@@H](CC(=O)N1CCn2c(C(F)(F)F)nc(C(=O)OCCCCCN3CCOCC3)c2C1)Cc1cc(F)c(F)cc1F [Compound 53, (R)-4-(1-(((5-morpholinopentyl)oxy)carbonyl)-3-(trifluoromethyl)-5,6-dihydroimidazo[1,5-a]pyrazin-7(8H)-yl)-4-oxo-1-(2,4,5-trifluorophenyl)butan-2-aminium (2R,3R)-3-carboxy-2,3-dihydroxypropanoate]
14 | 0.18 | N[C@@H](CC(=O)N1CCn2c(C(F)(F)F)nc(C(=O)OCCCN3CCOCC3)c2C1)Cc1cc(F)c(F)cc1F [Compound 51, (R)-4-(1-((3-morpholinopropoxy)carbonyl)-3-(trifluoromethyl)-5,6-dihydroimidazo[1,5-a]pyrazin-7(8H)-yl)-4-oxo-1-(2,4,5-trifluorophenyl)butan-2-aminium (2R,3R)-3-carboxy-2,3-dihydroxypropanoate]
15 | 27 | CC#CCn1c(N2CCC[C@@H](N)C2)nc2c1c(=O)n(Cc1ccc(Cl)cc1Br)c(=O)n2C [Compound 36]
16 | 2.3 | N#C[C@@H]1CCCN1C(=O)CN[C@]12CC3CC(C1)C[C@@](OCCO)(C3)C2 (stereo in doubt) [Compound 5, (2S)-1-(((1S,3R,5S)-3-(2-hydroxyethoxy)adamantan-1-yl)glycyl)pyrrolidine-2-carbonitrile]
17 | 10.5 | CC#CCn1c(N2CCC[C@@H](N)C2)nc2c1c(=O)n(Cc1ccc(C(=O)O)cc1)c(=O)n2C [Compound 28]
18 | > 10000 | CC#CCn1c(N2CCC[C@@H](N)C2)nc2c1c(=O)n(Cc1ccc(Cl)cc1C(=O)OCCOCCn1cc(CN(CCCCCC)C[C@H](O)[C@@H](O)[C@H](O)[C@H](O)CO)nn1)c(=O)n2C [Compound 41, 2-(2-(4-((hexyl(2,3,4,5,6-pentahydroxyhexyl)amino)methyl)-1H-1,2,3-triazol-1-yl)ethoxy)ethyl 2-((8-((R)-3-aminopiperidin-1-yl)-7-(but-2-yn-1-yl)-3-methyl-2,6-dioxo-2,3,6,7-tetrahydro-1H-purin-1-yl)methyl)-5-chlorobenzoate]
19 | 31 | CCCCCCCOC(=O)NC12CC3CC(CC(NCC(=O)N4CCC[C@H]4C#N)(C3)C1)C2 [Compound 1, Heptyl(3-((2-((S)-2-cyanopyrrolidin-1-yl)-2-oxoethyl)amino)adamantan-1-yl)carbamate]
20 | 0.55 | CCN(Cc1cn(CCOCCOCCOC(=O)c2nc(C(F)(F)F)n3c2CN(C(=O)C[C@H](N)Cc2cc(F)c(F)cc2F)CC3)nn1)C[C@H](O)[C@@H](O)[C@H](O)[C@H](O)CO [Compound 45, 2-(2-(2-(4-((ethyl((2S,3R,4R,5R)-2,3,4,5,6-pentahydroxyhexyl)amino)methyl)-1H-1,2,3-triazol-1-yl)ethoxy)ethoxy)ethyl 7-((R)-3-amino-4-(2,4,5-trifluorophenyl)butanoyl)-3-(trifluoromethyl)-5,6,7,8-tetrahydroimidazo[1,5-a]pyrazine-1-carboxylate]
21 | 31.6 | N#C[C@@H]1CCCN1C(=O)CN[C@]12CC3CC(C1)C[C@@](OCCOCCNC[C@H](O)[C@@H](O)[C@H](O)[C@H](O)CO)(C3)C2 (stereo in doubt) [Compound 11, (2S)-1-(((1S,3R,5S)-3-(2-(2-(((2S,3R,4R,5R)-2,3,4,5,6-pentahydroxyhexyl)amino)ethoxy)ethoxy)adamantan-1-yl)glycyl)pyrrolidine-2-carbonitrile]
22 | 700 | CC#CCn1c(N2CCC[C@@H](N)C2)nc2c1c(=O)n(Cc1ccc(Cl)cc1C(=O)OC(C)C)c(=O)n2C [Compound 37]
23 | 14.2 | CCCCCCN(Cc1cn(CCOCCOCCOC23CC4CC(CC(NCC(=O)N5CCC[C@H]5C#N)(C4)C2)C3)nn1)C[C@H](O)[C@@H](O)[C@H](O)[C@H](O)CO [Compound 8, (2S)-1-(((1S,3R,5S)-3-(2-(2-(2-(4-((hexyl((2S,3R,4R,5R)-2,3,4,5,6-pentahydroxyhexyl)amino)methyl)-1H-1,2,3-triazol-1-yl)ethoxy)ethoxy)ethoxy)adamantan-1-yl)glycyl)pyrrolidine-2-carbonitrile]
24 | 0.4 | [N-]=[N+]=NCCOCCOCCOC(=O)c1nc(C(F)(F)F)n2c1CN(C(=O)C[C@H](N)Cc1cc(F)c(F)cc1F)CC2 [Compound 42, 2-(2-(2-azidoethoxy)ethoxy)ethyl (R)-7-(3-amino-4-(2,4,5-trifluorophenyl)butanoyl)-3-(trifluoromethyl)-5,6,7,8-tetrahydroimidazo[1,5-a]pyrazine-1-carboxylate]

Reference: US20240174675A1, “SMALL MOLECULE REGULATORS OF ALVEOLAR TYPE 2 CELL PROLIFERATION FOR THE TREATMENT OF PULMONARY DISEASES” (THE SCRIPPS RESEARCH INSTITUTE, priority 2021, published 2024)
